{
  "source": "ChEMBL document CHEMBL4321837",
  "about": "“Discovery of Potent and Orally Effective Dual Janus Kinase 2/FLT3 Inhibitors for the Treatment of Acute Myelogenous Leukemia and Myeloproliferative Neoplasms” (J Med Chem, 2019)",
  "key": {"[1]": {"target": "T1, Tyrosine-protein kinase JAK1 (Homo sapiens, UniProt P23458)", "T1 sequence (P23458 whole entry)": "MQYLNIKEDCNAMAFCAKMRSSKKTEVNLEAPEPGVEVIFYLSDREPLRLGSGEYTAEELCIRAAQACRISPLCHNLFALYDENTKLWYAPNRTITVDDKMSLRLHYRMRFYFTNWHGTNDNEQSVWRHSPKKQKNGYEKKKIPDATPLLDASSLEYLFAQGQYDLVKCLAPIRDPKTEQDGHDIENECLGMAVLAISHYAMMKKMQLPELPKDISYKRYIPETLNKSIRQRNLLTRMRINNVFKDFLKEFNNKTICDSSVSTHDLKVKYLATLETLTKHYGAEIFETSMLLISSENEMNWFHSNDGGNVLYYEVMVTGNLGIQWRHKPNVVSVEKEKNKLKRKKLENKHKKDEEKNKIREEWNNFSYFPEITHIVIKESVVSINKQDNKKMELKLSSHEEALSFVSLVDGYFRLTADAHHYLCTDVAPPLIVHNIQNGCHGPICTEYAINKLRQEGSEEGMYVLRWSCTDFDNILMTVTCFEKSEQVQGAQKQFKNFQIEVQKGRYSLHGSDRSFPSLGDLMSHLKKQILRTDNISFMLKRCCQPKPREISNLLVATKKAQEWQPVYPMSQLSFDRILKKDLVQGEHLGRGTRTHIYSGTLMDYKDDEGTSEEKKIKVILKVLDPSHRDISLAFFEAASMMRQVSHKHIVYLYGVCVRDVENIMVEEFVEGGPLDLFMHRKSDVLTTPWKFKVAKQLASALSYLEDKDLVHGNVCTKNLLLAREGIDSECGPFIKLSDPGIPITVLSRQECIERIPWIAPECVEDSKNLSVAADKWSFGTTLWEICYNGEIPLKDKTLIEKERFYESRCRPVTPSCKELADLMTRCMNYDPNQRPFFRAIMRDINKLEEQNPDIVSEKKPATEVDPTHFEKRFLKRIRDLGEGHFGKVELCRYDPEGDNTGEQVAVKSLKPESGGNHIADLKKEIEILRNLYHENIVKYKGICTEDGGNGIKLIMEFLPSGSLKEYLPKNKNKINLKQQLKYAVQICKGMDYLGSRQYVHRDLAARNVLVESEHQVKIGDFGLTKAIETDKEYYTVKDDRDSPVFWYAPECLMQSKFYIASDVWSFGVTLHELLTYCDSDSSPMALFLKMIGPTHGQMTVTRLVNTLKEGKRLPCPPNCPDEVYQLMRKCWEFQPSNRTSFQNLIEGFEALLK", "experiment": "Inhibition of human JAK1 (866 to end residues) assessed as residual activity at 100 nM using GEEPLYWSFPAKK as substrate after 40 mins in presence of [gamma33P]-ATP by scintillation counting based radiometric assay relative to control"}, "[2]": {"target": "T1, Tyrosine-protein kinase JAK1", "experiment": "Inhibition of human JAK1 (866 to end residues) GEEPLYWSFPAKK as substrate after 40 mins in presence of [gamma33P]-ATP by scintillation counting based radiometric assay"}, "[3]": {"experiment": "Terminal elimination half life in Sprague-Dawley rat at 5 mg/kg, po measured up to 24 hrs by LC/MS/MS analysis", "format": "ADME, organism-based", "settings": "in vivo, 24 h"}, "[4]": {"target": "Vascular endothelial growth factor receptor 3 (Homo sapiens, UniProt P35916)", "sequence (P35916 whole entry, the tested form may be a part)": "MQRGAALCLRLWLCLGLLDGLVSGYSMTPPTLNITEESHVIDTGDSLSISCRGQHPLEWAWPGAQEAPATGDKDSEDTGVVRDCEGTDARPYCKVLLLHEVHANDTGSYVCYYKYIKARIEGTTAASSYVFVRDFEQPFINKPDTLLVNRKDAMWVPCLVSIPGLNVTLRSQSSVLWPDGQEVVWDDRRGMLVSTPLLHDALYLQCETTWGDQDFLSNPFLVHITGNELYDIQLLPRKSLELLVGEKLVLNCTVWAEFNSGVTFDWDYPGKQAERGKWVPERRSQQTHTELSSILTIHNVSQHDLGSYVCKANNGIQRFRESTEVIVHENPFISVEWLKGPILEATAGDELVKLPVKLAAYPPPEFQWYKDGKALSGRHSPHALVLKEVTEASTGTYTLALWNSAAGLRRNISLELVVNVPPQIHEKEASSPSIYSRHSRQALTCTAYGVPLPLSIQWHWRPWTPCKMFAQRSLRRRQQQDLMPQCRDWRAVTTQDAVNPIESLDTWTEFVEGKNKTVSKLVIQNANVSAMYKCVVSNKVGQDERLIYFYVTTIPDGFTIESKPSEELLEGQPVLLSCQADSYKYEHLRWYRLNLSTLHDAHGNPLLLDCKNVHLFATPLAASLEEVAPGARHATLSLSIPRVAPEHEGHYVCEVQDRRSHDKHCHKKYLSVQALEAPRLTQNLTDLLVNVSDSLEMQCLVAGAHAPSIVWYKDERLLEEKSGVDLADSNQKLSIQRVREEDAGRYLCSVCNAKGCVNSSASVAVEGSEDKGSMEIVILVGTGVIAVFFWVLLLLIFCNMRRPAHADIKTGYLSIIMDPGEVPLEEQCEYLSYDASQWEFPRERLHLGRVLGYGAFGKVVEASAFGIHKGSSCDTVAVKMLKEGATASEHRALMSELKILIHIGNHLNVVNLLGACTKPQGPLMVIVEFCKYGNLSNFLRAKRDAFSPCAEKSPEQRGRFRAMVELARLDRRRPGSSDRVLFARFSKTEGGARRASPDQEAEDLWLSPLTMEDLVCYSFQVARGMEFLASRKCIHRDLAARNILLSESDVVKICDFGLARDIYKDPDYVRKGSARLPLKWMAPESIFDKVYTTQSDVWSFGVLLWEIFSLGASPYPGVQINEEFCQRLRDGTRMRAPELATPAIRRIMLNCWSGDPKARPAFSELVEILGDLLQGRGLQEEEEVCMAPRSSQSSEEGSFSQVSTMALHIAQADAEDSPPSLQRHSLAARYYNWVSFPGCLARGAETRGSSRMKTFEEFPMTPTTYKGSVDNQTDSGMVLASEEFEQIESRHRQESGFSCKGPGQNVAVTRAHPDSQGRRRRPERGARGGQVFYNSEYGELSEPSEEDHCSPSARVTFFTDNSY", "experiment": "Inhibition of recombinant human FLT4 (800 to 1297 residues) using poly(Glu:Tyr) as substrate incubated for 30 mins in presence of [gamma33P]-ATP by scintillation counting based radiometry assay"}, "IEC-6": {"test_system": "IEC-6", "experiment": "Cytotoxicity against rat IEC-6 cells assessed as cell viability after 72 hrs by MTT assay", "format": "cell-based", "settings": "iec-6, 72 h"}, "[5]": {"experiment": "Cytotoxicity against rat H9c2(2-1) cells assessed as cell viability after 72 hrs by MTT assay", "format": "cell-based"}, "MDA-MB-453": {"test_system": "MDA-MB-453", "experiment": "Antiproliferative activity against human MDA-MB-453 cells assessed as reduction in cell growth after 72 hrs by MTT assay", "format": "functional, cell-based"}, "Cytochrome P450 1A2": {"target": "Cytochrome P450 1A2 (Homo sapiens, UniProt P05177)", "sequence (P05177 whole entry)": "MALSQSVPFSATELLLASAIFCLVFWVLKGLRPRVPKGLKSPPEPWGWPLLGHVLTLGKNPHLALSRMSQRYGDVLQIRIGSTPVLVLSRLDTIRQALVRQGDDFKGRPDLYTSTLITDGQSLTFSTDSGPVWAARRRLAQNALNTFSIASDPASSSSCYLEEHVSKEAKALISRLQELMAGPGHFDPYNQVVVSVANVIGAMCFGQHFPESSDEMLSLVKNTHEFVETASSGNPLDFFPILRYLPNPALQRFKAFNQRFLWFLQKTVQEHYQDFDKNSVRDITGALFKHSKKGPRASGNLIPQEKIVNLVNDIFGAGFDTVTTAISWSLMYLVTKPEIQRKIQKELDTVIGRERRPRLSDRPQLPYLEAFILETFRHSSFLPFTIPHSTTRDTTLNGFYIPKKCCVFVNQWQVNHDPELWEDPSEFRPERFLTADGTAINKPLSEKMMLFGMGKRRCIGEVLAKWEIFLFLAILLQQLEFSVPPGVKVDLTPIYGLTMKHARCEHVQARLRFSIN", "experiment": "Inhibition of CYP1A2 (unknown origin)", "format": "ADME"}, "[6]": {"experiment": "Half life in dog liver microsomes", "format": "ADME, Canis lupus familiaris, Microsome"}, "[7]": {"experiment": "Intrinsic clearance in rat liver microsomes", "format": "ADME, Microsome"}, "MV4-11 [8]": {"test_system": "MV4-11", "experiment": "Induction of cell cycle arrest in human MV4-11 cells assessed as accumulation at G2/M phase at 0.01 uM after 24 hrs by propidium iodide staining based flow cytometry analysis (reference value: 15.4%)", "format": "functional"}, "MV4-11 [9]": {"test_system": "MV4-11", "experiment": "Induction of cell cycle arrest in human MV4-11 cells assessed as accumulation at G2/M phase at 0.05 uM after 24 hrs by propidium iodide staining based flow cytometry analysis (reference value: 15.4%)", "format": "functional"}, "MV4-11 [10]": {"test_system": "MV4-11", "experiment": "Induction of apoptosis in human MV4-11 cells assessed as late apoptotic cells at 0.05 uM after 24 hrs by Annexin V FITC/PI staining based flow cytometry analysis (reference value: 1.38%)", "format": "functional"}, "MV4-11 [11]": {"test_system": "MV4-11", "experiment": "Induction of apoptosis in human MV4-11 cells assessed as viable cells at 0.8 uM after 24 hrs by Annexin V FITC/PI staining based flow cytometry analysis (reference value: 96.3%)", "format": "functional", "settings": "MV4-11, 24 h, read-out: Activity"}, "MV4-11 [12]": {"test_system": "MV4-11", "experiment": "Induction of apoptosis in human MV4-11 cells assessed as viable cells at 1.6 uM after 24 hrs by Annexin V FITC/PI staining based flow cytometry analysis (reference value: 96.3%)", "format": "functional", "settings": "MV4-11, 24 h, read-out: Activity"}, "MV4-11 [13]": {"test_system": "MV4-11", "experiment": "Induction of apoptosis in human MV4-11 cells assessed as early apoptotic cells at 1.6 uM after 24 hrs by Annexin V FITC/PI staining based flow cytometry analysis (reference value: 2.14%)", "format": "functional"}, "[14]": {"experiment": "Toxicity in NOD/SCID mouse xenografted with FLT3-ITD-positive human MV4-11 cells assessed as body weight at 30 to 60 mg/kg, po qd for 14 days", "format": "organism-based", "settings": "in vivo, 336 h"}},
  "note": "Activity calls are given as the source filed them. The rule behind the calls is not given here.",
  "data": [
    {"compound": "Cc1cnc(Nc2ccc(N3CCC(N(C)CCO)CC3)c(F)c2)nc1-c1cnn(C(C)C)c1", "values": [
      {"measurement": "Activity", "setting": "[1]", "value": 25, "unit": "%"},
      {"measurement": "IC50", "setting": "[2]", "value": 26, "unit": "nM"},
      {"measurement": "beta t1/2", "setting": "[3]", "value": 4.1, "unit": "h"},
      {"measurement": "IC50", "setting": "[4]", "value": 8, "unit": "nM"},
      {"measurement": "Activity", "setting": "IEC-6", "value": "Non-Toxic"},
      {"measurement": "Activity", "setting": "[5]", "value": "Non-Toxic"},
      {"measurement": "Activity", "setting": "MDA-MB-453", "value": "Active"},
      {"measurement": "IC50", "setting": "Cytochrome P450 1A2", "value": 64.4, "unit": "µM"},
      {"measurement": "half-life", "setting": "[6]", "value": 187, "unit": "min"},
      {"measurement": "CLH", "setting": "[7]", "value": 0.0009, "unit": "mL/min/mg"},
      {"measurement": "Activity", "setting": "MV4-11 [8]", "value": 11.8, "unit": "%"},
      {"measurement": "Activity", "setting": "MV4-11 [9]", "value": 5.51, "unit": "%"},
      {"measurement": "Activity", "setting": "MV4-11 [10]", "value": 4.55, "unit": "%"},
      {"measurement": "viability at 0.8 µM", "setting": "MV4-11 [11]", "value": 46.4, "unit": "%"},
      {"measurement": "viability at 1.6 µM", "setting": "MV4-11 [12]", "value": 24.9, "unit": "%"},
      {"measurement": "Activity", "setting": "MV4-11 [13]", "value": 33.6, "unit": "%"},
      {"measurement": "Activity", "setting": "[14]", "value": "Non-Toxic"}
    ]}
  ]
}
